According to article PMC6914219 (European journal of pharmacology, 2019):

Tested on: Caco-2 monolayers

For lucifer yellow, the Papp was under 1e+12 ×10⁻⁶ cm/s.
